Here are results for 2 molecules from patent publication US8217061B2, “Polymorphs of sorafenib tosylate and sorafenib hemi-tosylate, and processes for preparation thereof” (Sicor Inc., priority 2008, dated 2012).

For data set [1] the following is noted: as reported in WO 2006/034797, page 2, lines 5-7; cited from earlier work.
A short description of data set [2]: stability of crystalline form in water suspension (no hydrolysis of the PTSA moiety). It is filed as physicochemical. The settings on record: about 20° C., stable = no hydrolysis of the PTSA moiety in water for at least about 48 hours. The protocol: Sorafenib hemi-tosylate Form A is a stable crystalline form in water suspensions at a temperature of about 20° C., making it ideal for use in the preparation of a dosage form, particularly when the process of wet granulation is used.

`CNC(=O)c1cc(Oc2ccc(NC(=O)Nc3ccc(Cl)c(C(F)(F)F)c3)cc2)ccn1.Cc1ccc(S(=O)(=O)O)cc1` [form II, 4-(4-{3-[4-chloro-3-(trifluoromethyl)phenyl]ureido}phenoxy)-N2-methylpyridine-2-carboxamide 4-methylbenzenesulfonate]: in data set [1], the “stability of polymorphic form” value is “meta stable”.
Take “Sorafenib hemi-tosylate [Sorafenib hemi-tosylate Form A]”: the “stability of crystalline form in water suspensions” value in data set [2] is reported as “stable”.
